Some targets named below: HLA A*0204 (Homo sapiens, UniProt P04439, D140Y/D185E/D98H/E176V/E277Q/G131W/G231S/I119V/I121M/I166T/I218V/L300P/L318F/N151K/N90K/P208A/P217A/Q86G/Q94H/R138H/R169H/T345S); HLA A*0206 (Homo sapiens, UniProt P04439, D140Y/D185E/D98H/E176V/E277Q/F33Y/G131W/G231S/I119V/I121R/I166T/I218V/L300P/L318F/N151K/N90K/P208A/P217A/Q86G/Q94H/R138H/R169H/T345S); HLA A*0209 (Homo sapiens, UniProt P04439, A260E/D140Y/D185E/D98H/E176V/E277Q/G131W/G231S/I119V/I121R/I166T/I218V/L300P/L318F/N151K/N90K/P208A/P217A/Q86G/Q94H/R138H/R169H/T345S); HLA A*0202 (Homo sapiens, UniProt P04439, D140Y/D185E/D98H/E176V/E277Q/G131W/G231S/I119L/I121R/I166T/I218V/L180W/L300P/L318F/N151K/N90K/P208A/P217A/Q67R/Q86G/Q94H/R138H/R169H/T345S); HLA A*0205 (Homo sapiens, UniProt P04439, D140Y/D185E/D98H/E176V/E277Q/F33Y/G131W/G231S/I119L/I121R/I166T/I218V/L180W/L300P/L318F/N151K/N90K/P208A/P217A/Q67R/Q86G/Q94H/R138H/R169H/T345S); HLA A*0207 (Homo sapiens, UniProt P04439, D140Y/D185E/D98H/E176V/E277Q/G131W/G231S/I119V/I121R/I166T/I218V/L300P/L318F/N151K/N90K/P208A/P217A/Q86G/Q94H/R138H/R169H/T345S/Y123C); HLA A*0210 (Homo sapiens, UniProt P04439, D140Y/D185E/D98H/E176V/E277Q/F33Y/G231S/I119V/I121R/I166T/I218V/L300P/L318F/N151K/N90K/P208A/P217A/Q86G/Q94H/R138H/R169H/T345S/Y123F); HLA A*0211 (Homo sapiens, UniProt P04439, D140Y/D185E/E176V/E277Q/G131W/G231S/I119V/I121R/I166T/I218V/L300P/L318F/N151K/N90K/P208A/P217A/Q86G/Q94H/R138H/R169H/T345S/T97I); HLA A*0217 (Homo sapiens, UniProt P04439, D140Y/D185E/D98H/E176V/E277Q/G131W/G231S/I119L/I121M/I166T/I218V/L300P/L318F/N151K/N90K/P208A/P217A/Q86G/Q94H/R138H/R169H/T345S/Y123F).

The test system of a further data set is 495 peptide targets. The conditions noted are these: after 14 weeks; 495 peptide + PADRE + IFA.
In data set [1] the test system is peptide-loaded T2 cells, EBVLCL targets infected with pp65Vac, and HCMV-infected fibroblasts. Put plainly: lipidated peptides with and without IFA in transgenic HLA A2.1 mouse, CRA. The conditions noted are these: peptide together with PADRE, with versus without emulsification in IFA. The format is in vivo. The protocol: Either one or two palmitic acid moieties were attached to the amino terminus of the 495 peptide, and a series of immunization studies were conducted in the transgenic HLA A2.1 mouse.
Separate mice were immunized with unmodified pp65495-503, and either the monolipidated or dilipidated forms of the peptide together with the PADRE epitope. Because it has been previously shown that lipidated peptides will stimulate immunity without co-administration of Freund's adjuvant (H. Schild et al., Eur. J. Immunol. 21:2649–2654 (1991)), immunization of mice with and without emulsifying the peptides in IFA was compared. In a procedure similar to the procedure described in Example 9 above, twelve days post inoculation the mice were splenectomized and the spleen cell population was restimulated twice in vitro. The splenic effectors were then tested in a chromium release assay with peptide-loaded T2 cells, EBVLCL targets infected with pp65Vac, and HCMV-infected fibroblasts (D. J. Diamond et al., Blood 90 (5):1751–1767 (1997)). […] (See FIGS. 1–3)

For the next data set, the system named is peptide loaded T2 cells. Put plainly: immunization of HLA A2.1 transgenic mice, splenic effectors tested on peptide loaded T2 cells. Format: in vivo, mouse. The conditions noted are these: 50 μg peptide with 20 μg PADRE in IFA s.c., two in vitro restimulation cycles. From the text:
A transgenic mouse model lacking prior HCMV exposure, the HLA A2.1 mouse (E. J. Bernhard et al., J. Exp. Med. 168:1157–1162 (1988)), was employed to test whether the 495 peptide could stimulate CTLs lacking prior virus exposure and function as a vaccine. These experiments involved in vitro analysis using mouse and human cell targets, either infected with viruses or primed with the peptide of SEQ ID NO:1 or a non-specific control peptide.
Three mice were immunized subcutaneously at the base of the tail with 50 μg of the 495 peptide (pp65495-503) or peptide p53149-157 from p53 (M. Theobald et al., Proc. Natl. Acad. Sci. U.S.A. 92:11993–11997 (1995)) together with 20 μg of the polyclonal helper T lymphocyte (HTL) peptide (PADRE; SEQ ID NO:29) (J. Alexander et al., Immunity. 1:751–761 (1994)) emulsified in IFA (Incomplete Freund's Adjuvant). After twelve days, spleens were removed from immunized mice, a splenic suspension was made, and the effector cells were restimulated for one week using p53149-157 or pp65495-503 peptide sensitized syngeneic lipopolysaccharide-treated splenic blast cells (P. A. Wentworth et al., Eur. J. Immunol. 26:97–101 (1996)). Thereafter, for subsequent in vitro stimulations, the stimulator cells were Jurkat A2.1 cells, prepared by mild acid treatment and subsequent loading of peptides (Z. Yu et al., Journal of Surgical Research 69:337–343 (1997)). […]

Here are results for four compounds from patent US7160685B2, “Diagnostic reagents for human cytomegalovirus and methods of use” (priority 1996, dated 2007).

Read-outs that look alike come from different tables or passages of the source. Where no end group is shown, it is not given here. The star is where a group is joined. Palmitoyl = CCCCCCCCCCCCCCCC(=O)*

Procedure for HLA A*0202: (§1) Twelve cell lines were subjected to chromium release assays in which they were pulsed with the 495 peptide (pp65495-503) nonamer, loaded with chromium-51, and incubated with two different HLA A*0201 restricted CTL which recognize the 495 peptide and HCMV. The specific cytotoxicity was calculated and is shown in tabular form below for the 1 μM and 1 nM concentrations of the 495 peptide.
Procedure for HLA A*0204: as §1
Procedure for HLA A*0205: as §1
Procedure for HLA A*0206: as §1
Procedure for HLA A*0207: as §1
Procedure for HLA A*0209: as §1
Procedure for HLA A*0210: as §1
Procedure for HLA A*0211: as §1
Procedure for HLA A*0217: as §1

As to `CSCC[C@H](NC(=O)[C@@H]1CCCN1C(=O)[C@@H](NC(=O)[C@H](CC(C)C)NC(=O)[C@@H](N)CC(N)=O)C(C)C)C(=O)N[C@H](C(=O)N[C@@H](C)C(=O)N[C@H](C(=O)N[C@H](C(=O)O)C(C)C)[C@@H](C)O)C(C)C` [SEQ ID NO:1], the specific cytotoxicity entry is “+ (cytotoxicity greater than 30%)” on HLA A*0204 (A*0204, CTL 3-3F4, 1 nM); “+ (cytotoxicity greater than 30%)” on HLA A*0204 (A*0204, CTL 3-3F4, 1 μM); “+ (cytotoxicity greater than 30%)” at HLA A*0204 (A*0204, CTL VB-57, 1 nM); “+ (cytotoxicity greater than 30%)” at HLA A*0204 (A*0204, CTL VB-57, 1 μM); “+ (cytotoxicity greater than 30%)” on HLA A*0206 (A*0206, CTL 3-3F4, 1 nM); “+ (cytotoxicity greater than 30%)” on HLA A*0206 (A*0206, CTL 3-3F4, 1 μM). Also, the specific cytotoxicity entry on HLA A*0206 (A*0206, CTL VB-57, 1 nM) was “+ (cytotoxicity greater than 30%)”; at HLA A*0206 (A*0206, CTL VB-57, 1 μM) it was “+ (cytotoxicity greater than 30%)”; on HLA A*0209 (A*0209, CTL 3-3F4, 1 nM), “− (cytotoxicity less than 15%)”; at HLA A*0209 (A*0209, CTL 3-3F4, 1 μM), “+ (cytotoxicity greater than 30%)”; on HLA A*0209 (A*0209, CTL VB-57, 1 nM), “− (cytotoxicity less than 15%)”; at HLA A*0209 (A*0209, CTL VB-57, 1 μM), “+ (cytotoxicity greater than 30%)”. Also, the specific cytotoxicity result at HLA A*0202 (A*0202, CTL 3-3F4, 1 nM) is reported as “− (cytotoxicity less than 15%)”; at HLA A*0202 (A*0202, CTL 3-3F4, 1 μM), “+ (cytotoxicity greater than 30%)”; on HLA A*0202 (A*0202, CTL VB-57, 1 nM) it was “− (cytotoxicity less than 15%)”; at HLA A*0202 (A*0202, CTL VB-57, 1 μM), “+ (cytotoxicity greater than 30%)”; at HLA A*0205 (A*0205, CTL 3-3F4, 1 nM), “− (cytotoxicity less than 15%)”; at HLA A*0205 (A*0205, CTL 3-3F4, 1 μM), “+ (cytotoxicity greater than 30%)”. Besides, the specific cytotoxicity entry is listed as “+ (cytotoxicity greater than 30%)” at HLA A*0205 (A*0205, CTL VB-57, 1 nM); “+ (cytotoxicity greater than 30%)” on HLA A*0205 (A*0205, CTL VB-57, 1 μM); “+ (cytotoxicity greater than 30%)” at HLA A*0207 (A*0207, CTL 3-3F4, 1 nM); “+ (cytotoxicity greater than 30%)” on HLA A*0207 (A*0207, CTL 3-3F4, 1 μM); “+ (cytotoxicity greater than 30%)” at HLA A*0207 (A*0207, CTL VB-57, 1 nM); “+ (cytotoxicity greater than 30%)” on HLA A*0207 (A*0207, CTL VB-57, 1 μM). The specific cytotoxicity entry at HLA A*0210 (A*0210, CTL 3-3F4, 1 nM) is “+ (cytotoxicity greater than 30%)”; at HLA A*0210 (A*0210, CTL 3-3F4, 1 μM), “+ (cytotoxicity greater than 30%)”; on HLA A*0210 (A*0210, CTL VB-57, 1 nM), “+ (cytotoxicity greater than 30%)”; at HLA A*0210 (A*0210, CTL VB-57, 1 μM) it was “+ (cytotoxicity greater than 30%)”; at HLA A*0211 (A*0211, CTL 3-3F4, 1 nM), “− (cytotoxicity less than 15%)”; at HLA A*0211 (A*0211, CTL 3-3F4, 1 μM) it was “+ (cytotoxicity greater than 30%)”. The specific cytotoxicity result on HLA A*0211 (A*0211, CTL VB-57, 1 μM) is “+ (cytotoxicity greater than 30%)”; on HLA A*0217 (A*0217, CTL 3-3F4, 1 nM), “− (cytotoxicity less than 15%)”; on HLA A*0217 (A*0217, CTL 3-3F4, 1 μM), “+ (cytotoxicity greater than 30%)”; on HLA A*0217 (A*0217, CTL VB-57, 1 nM), “+ (cytotoxicity greater than 30%)”; at HLA A*0217 (A*0217, CTL VB-57, 1 μM) it was “+ (cytotoxicity greater than 30%)”. The “Percent specific cytotoxicity (cytotoxicity of 495 peptide targets—cytotoxicity of p53 targets)” value in the data set on 495 peptide targets is reported as 40%.

Regarding “1 PALMITIC ACID-KSS-NLVPMVATV-OH (Palmitoyl-KSSNLVPMVATV-OH; SMILES CCCCCCCCCCCCCCCC(=O)N[C@@H](CCCCN)C(=O)N[C@@H](CO)C(=O)N[C@@H](CO)C(=O)N[C@@H](CC(N)=O)C(=O)N[C@@H](CC(C)C)C(=O)N[C@H](C(=O)N1CCC[C@H]1C(=O)N[C@@H](CCSC)C(=O)N[C@H](C(=O)N[C@@H](C)C(=O)N[C@H](C(=O)N[C@H](C(=O)O)C(C)C)[C@@H](C)O)C(C)C)C(C)C) [SEQ ID NO:31]”, in data set [1], the “immune response induced (CRA of splenic effectors)” value was “weaker immune response”.

As for “p53149-157: peptide p53149-157 from human p53 which binds to HLA A*0201, control peptide (STPPPGTRV; UniProt P04637 149-157, looked up, fragment)”, in the data set on peptide loaded T2 cells, the “recognition of T2 cells loaded with the immunizing peptide by murine splenic effectors” value is “substantial recognition” and the “recognition of T2 cells loaded with the non-immunizing peptide” value is “without recognition of the non-immunizing peptide”.

“KSS-NLVPMVATV-OH (KSSNLVPMVATV-OH) [SEQ ID NO:30]”: the “immune response induced (CRA of splenic effectors)” value in [1] is listed as “no activity unless emulsified in IFA”.
